The results in this text go back to patent US5554620A, “Substituted 6,11-ethano-6,11-dihydrobenzo[b] quinolizinium salts and compositions and methods of use thereof” (Sterling Winthrop Inc., priority 1994, dated 1996).

In general, pKi refers to the negative decadic logarithm of the Ki, by convention in mol/L. A lower pKi goes with a high Ki.

pKi: −log10 of the molar value.

For one experiment, the target named is PCP receptor. In words: [3H]TCP radioreceptor assay (binding to PCP recognition sites). On the set-up: species or system rat (male Sprague-Dawley, whole brain). The note with it: [3H]TCP approx. 1 nM, rat brain membranes; mean of at least two determinations. The method, then:
[^3 H]TCP Radioreceptor Assay
[^3 H]TCP binding to PCP recognition sites was performed as described by Vignon et al. Brain Research 1983, 280, 194-197. Male Sprague-Dawley rats were sacrificed by decapitation, and whole brains were homogenized in 10 volumes (wt/vol) of cold Tris-HCl buffer (50 mM, pH 7.7) using a Brinkmann Polytron (setting 6, 30 sec). The homogenate was centrifuged at 40,000×g for 10 min at 4° C. The supernatant was decanted, and the homogenization and centrifugation steps were repeated twice as described above. Following this, the pellet was resuspended in Tris-HCl (5 mM, pH 7.7) at a tissue concentration of 0.5-0.75 g/mL, and one mL aliquots were frozen at -70° C. until use. The binding characteristics for PCP recognition sites were not altered by the freezing of membrane suspensions.
On the day of the assay, membrane aliquots were thawed, resuspended in fresh 5 mM Tris-HCl buffer at a tissue concentration of 1 mg/mL, and stored on ice until use. Each assay tube contained 100 μl of [^3 H]TCP at a final concentration of approximately 1 nM, 100 μL of various concentrations of the compounds of interest, 500 μL of the tissue suspension and 300 μL of buffer to a final assay volume of 1 mL and a final protein concentration of 0.5 mg/tube. Non-specific binding was defined by addition of a final concentration of 100 μM PCP to blank tubes. All tubes were incubated at room temperature for 25 min before termination of the reaction by rapid filtration over Whatman GF/B glass fiber filters that had been presoaked in a solution of 0.5% polyethylenimine for at least 1 hr prior to use. Filters were washed with three 4 mL volumes of cold Tris buffer. Following addition of scintillation cocktail, the amount of bound radioactivity was determined by liquid scintillation spectrometry using a Beckman LS 5000TA liquid scintillation counter with an efficiency for tritium of approximately 55%. Inhibition constants (Ki values) were calculated using the EBDA/LIGAND program (McPherson, J. Pharmacol. Meth. 1985, 14, 213-228), purchased from ElsevierBiosoft, Inc. Results are reported as the Ki values (in nM) which are expressed as the mean of at least two separate determinations; or as a percent (%) inhibition of binding at 10 μM.
In the case of `COc1ccc2c(c1)C1(c3ccccc3)C3c4ccccc4C(C1C2)[n+]1ccccc13` (stereo not shown) [3(d), 6,11[[2',3']-3'-phenyl-6'-methoxyindanyl]6,11-dihydrobenzo[b]quinoliziniumhexafluorophosphate], the pKi was 7.85.

For the compound `Clc1cccc2[n+]1C1CC(c3ccoc3)(c3ccoc3)C2c2ccccc21.[O-][Cl+3]([O-])([O-])[O-]` (stereo not shown) [192(g), 6,11-ethano-12,12-di(3-furyl)-4-chloro-6,11-dihydrobenzo[b]-quinolizinium perchlorate], the pKi is 6.20. Compound `Cn1ccc(C2(c3ccn(C)n3)CC3c4ccccc4C2c2cccc[n+]23)n1` (stereo not shown) [158(f), 6,11-ethano-12,12-di[3-(1-methylpyrazolyl)]-6,11-dihydrobenzo[b]quinolizinium chloride] showed a pKi of 6.20. In turn, `Oc1ccc2c(c1)C1c3cccc[n+]3C2CC1(c1ccccc1)c1ccccc1` (stereo not shown) [34(b), 6,11-ethano-12,12-diphenyl-9-hydroxy-6,11-dihydrobenzo[b]quinolizinium chloride] gave a pKi of 7.66. Still for that read-out and setting: then `c1ccc2c(c1)C1C3CCc4occc4C3(c3cc4ccccc4o3)C2c2cccc[n+]21` (stereo not shown) [Example 10(c), 6,11[[5',4']-4'-(2-benzofuryl)-4',5',6',7'-tetrahydrobenzofuryl]6,11-dihydrobenzo[b]quinolizinium hexafluorophosphate], with 5.96. On the same count and under the same terms, the figure for `COc1ccc(C2(c3ccc(OC)cc3)CC3c4ccccc4C2c2cccc[n+]23)cc1` (stereo not shown) [44(b), 6,11-ethano-12,12-di(p-methoxyphenyl)-6,11-dihydrobenzo[b]quinolizinium hexafluorophosphate] is 4.55; for `Fc1ccc[n+]2c1C1c3ccccc3C2CC1(c1ccoc1)c1ccoc1.[O-][Cl+3]([O-])([O-])[O-]` (stereo not shown) [197(d), 6,11-ethano-12,12-di(3-furyl)-1-fluoro-6,11-dihydrobenzo[b]quinolizinium perchlorate] it is 7.86. Same read-out and setting: the figure for `CC12CC(c3ccccc3)(c3ccccc3)C(c3ccccc31)c1cccc[n+]12` (single isomer, unassigned) [20(h), 6,11-ethano-12,12-diphenyl-6-methyl-6,11-dihydrobenzo[b]quinolizinium chloride 1/2 hydrate] is 8.15; for `COc1cccc2c1C1c3cccc[n+]3C2CC1(c1ccoc1)c1ccoc1` (stereo not shown) [66(g), 6,11-ethano-12,12-di(3-furanyl)-10-methoxy-6,11-dihydrobenzo[b]quinolizinium chloride] it is 8.22. For the compound `[O-][Cl+3]([O-])([O-])[O-].c1ccc(C2(N3CCOCC3)CC3c4ccccc4C2c2cccc[n+]23)cc1` (stereo not shown) [111(b), 6,11-Ethano-12-phenyl-12-(4-morpholinyl)-6,11-dihydrobenzo[b]quinolizinium perchlorate], the pKi was 7.42. Compared with the last compound, the pKi is 0.80 log units lower. Still for that read-out and setting: the figure for `C=C1C2c3ccccc3C(c3cccc[n+]32)C1(c1ccoc1)c1ccoc1` (stereo not shown) [162(d), 6,11-ethano-12,12-di(3-furyl)-13-methylene-6,11-dihydrobenzo[b]quinolizinium hexafluorophosphate] is 8.64; for `c1ccc(C23c4ccccc4CC2C2c4ccccc4C3c3cccc[n+]32)cc1` (stereo not shown) [Example 1F, 6,11[[2',3']-3'-phenyl-indanyl]6,11-dihydrobenzo[b]quinolizinium hexafluorophosphate] it is 8.12. On the same count and under the same terms, then `CC(=O)Oc1ccc[n+]2c1C1c3ccccc3C2CC1(c1ccoc1)c1ccoc1` (stereo not shown) [Example 170, 6,11-ethano-12,12-di(3-furyl)-1-acetyloxy-6,11-dihydrobenzo-[b]quinolizinium chloride], with 6.63. Take `COc1ccc[n+]2c1C1c3ccccc3C2CC1(c1ccoc1)c1ccoc1` (stereo not shown) [164(e), 6,11-ethano-12,12-di(3-furyl)-1-methoxy-6,11-dihydrobenzo[b]quinolizinium chloride]: the pKi is 7.72. On the same count and under the same terms, the figure for `COc1cccc2c1C1c3cccc[n+]3C2(C)CC1(c1ccccc1)c1ccccc1` (stereo not shown) [37(E), 6,11-ethano-12,12-diphenyl-10-methoxy-6-methyl-6,11-dihydrobenzo[b]quinolizinium chloride] is 7.44; for `c1ccc2c(c1)CC1C2C2c3ccccc3C1[n+]1ccccc12` (single isomer, unassigned) [Example 2(b), 6,11[[2',3']indanyl]6,11-dihydrobenzo[b]quinolizinium chloride] it is 6.58. Compound `Cc1cc[n+]2c(c1)C1c3ccccc3C2CC1(c1ccccc1)c1ccccc1.[O-][Cl+3]([O-])([O-])[O-]` (stereo not shown) [54(E), 6,11-ethano-12,12-diphenyl-2-methyl-6,11-dihydrobenzo[b]quinolizinium perchlorate] gave a pKi of 7.28.

For the compound `COc1cccc2c1CC1C3c4ccccc4C(c4cccc[n+]43)C21c1ccccc1` (stereo not shown) [4(E), 6,11[[2',3']-3'-phenyl-7'-methoxy-indanyl]16,11-dihydrobenzo[b]quinolizinium hexafluoro-phosphate], the pKi was 5.23. This pKi lies 2.05 log units lower than the previous one.

The compound `CCOC(=O)C=CC(=O)Oc1cccc2c1C1c3cccc[n+]3C2CC1(c1ccoc1)c1ccoc1` (stereo not shown) [167(c), 6,11-ethano-12,12-di(3-furyl)-10-(OC(O)CH=CHCO2 Et)-6,11-dihydrobenzo[b]quinolizinium perchlorate] gave a pKi of 8.11.

In the case of `CCOC1(c2ccoc2)C2c3ccccc3C(C1C)[n+]1ccccc12` (single isomer, unassigned) [65(c), 6,11-ethano-12-(3-furyl)-12-ethoxy-13-methyl-6,11-dihydrobenzo[b]quinolizinium hexafluorophosphate], the pKi was 8.55. The same measure, in the same setting: then `Oc1cccc2c1C1c3cccc[n+]3C2CC1(c1cc[nH]c1)c1cc[nH]c1` (stereo not shown) [190(b), 6,11-ethano-12,12-di(3-pyrrolyl)-10-hydroxy-6,11-dihydrobenzo[b]quinolizinium chloride], with 7.97; and `Brc1cccc(C2(c3cccc(Br)c3)CC3c4ccccc4C2c2cccc[n+]23)c1` (stereo not shown) [36(c), 6,11-ethano-12,12-di(m-bromophenyl)-6,11-dihydrobenzo[b]quinolizinium chloride], with 6.73; and `Oc1cccc(C2(c3cccc(O)c3)CC3c4ccccc4C2c2cccc[n+]23)c1.[O-][Cl+3]([O-])([O-])[O-]` (stereo not shown) [Example 177, 6,11-ethano-12,12-di(m-hydroxyphenyl)-6,11-dihydrobenzo[b]quinolizinium perchlorate], with 7.86.

`Cc1ccc(S(=O)(=O)n2nccc2C2(c3ccoc3)CC3c4ccccc4C2c2cccc[n+]23)cc1` (single isomer, unassigned) [Example 184(c), 6,11-ethano-12-(3-furyl)-12-[1-(p-toluenesulfonyl)pyrazol-5-yl]-6,11-dihydrobenzo[b]quinolizinium bromide] had a pKi of 4.89. This pKi is 2.97 log units lower than that of the compound before. The same measure, in the same setting: then `Fc1cc(F)c2c(c1)C1CC(c3ccccc3)(c3ccccc3)C2c2cccc[n+]21` (stereo not shown) [33(c), 6,11-ethanol-12,12-diphenyl-8,10-difluoro-6,11-dihydrobenzo[b]quinolizinium chloride 1/4 hydrate], with 5.94; and `CC(C)Oc1cccc2c1C1c3cccc[n+]3C2CC1(c1ccccc1)c1ccccc1` (stereo not shown) [32(F), 6,11-ethano-12.12-diphenyl-10-isopropoxy-6,11-dihydrobenzo[b]quinoliziniumchloride], with 6.33; and `FC(F)(F)c1ccc2c(c1)C1c3cccc[n+]3C2CC1(c1ccccc1)c1ccccc1` (stereo not shown) [45(E), 6,11-ethano-12,12-diphenyl-9-trifluoromethyl-6,11-dihydrobenzo[b]quinolizinium chloride 1/4 hydrate], with 6.31. Compound `CCOC(=O)CCC(=O)Oc1cccc2c1C1c3cccc[n+]3C2CC1(c1ccoc1)c1ccoc1` (stereo not shown) [Example 166, 6,11-ethano-12,12-di(3-furyl)-10-(3-ethoxycarbonyl)propionyloxy-6,11-dihydrobenzo-[b]quinolizinium chloride] gave a pKi of 7.21.

The same experiment, now with this note: inhibition of [3H]TCP binding at 10 μM.
Regarding `Clc1ccc(C2(c3ccc(Cl)cc3)CC3c4ccccc4C2c2cccc[n+]23)cc1.F[P-](F)(F)(F)(F)F` (stereo not shown) [43(b), 6,11-ethano-12,12-di(p-chlorophenyl)-6,11-dihydrobenzo[b]quinolizinium hexafluorophosphate], the “[3H]TCP percent inhibition @ 10 μm” value was 45%.

Turning to `FC(F)(F)c1cccc(C2(c3cccc(C(F)(F)F)c3)CC3c4ccccc4C2c2cccc[n+]23)c1.[Cl-]` (stereo not shown) [46(c), 6,11-ethano-12,12-di(m-trifluoromethylphenyl)-6,11-dihydrobenzo[b]quinolizinium chloride], the “[3H]TCP percent inhibition @ 10 μm” value is on record as 31%. On the same count and under the same terms, the figure for `c1ccc2c(c1)C1CC(c3nc[nH]n3)(c3nc[nH]n3)C2c2cccc[n+]21` (stereo not shown) [159(h), 6,11-ethano-12,12-di-[3-(1,2,4-triazolyl)]-6,11-dihydrobenzo[b]quinolizinium chloride] is 31%.
